Results taken from ChEMBL document CHEMBL1201861, “Genomics of Drug Sensitity in Cancer screening data, Wellcome Trust Sanger Institute”.

How the values were obtained:
Experiment in all cases: cells
Format in all cases: functional, cell-based, Homo sapiens
[1] = tested on: GAMG;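 further: cell growth inhibition measured by a viability assay in the GAMG human cell line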
Description: SANGER: Inhibition of human GAMG cell growth in a cell viability assay.

[2] = tested on: GMS-10;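 further: growth inhibition of GMS-10 cells, read out as cell viability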
Description: SANGER: Inhibition of human GMS-10 cell growth in a cell viability assay.

[3] = tested on: GP5d;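 further: growth inhibition of human GP5d cells, read out with a cell viability assay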
Description: SANGER: Inhibition of human GP5d cell growth in a cell viability assay.

[4] = tested on: HCC1419;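 further: growth inhibition of human HCC1419 cells, read out as cell viability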
Description: SANGER: Inhibition of human HCC1419 cell growth in a cell viability assay.

[5] = tested on: HN
Description: SANGER: Inhibition of human HN cell growth in a cell viability assay.

[6] = tested on: HO-1-N-1;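 further: growth inhibition of human HO-1-N-1 cells, read out with a cell viability assay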
Description: SANGER: Inhibition of human HO-1-N-1 cell growth in a cell viability assay.

[7] = tested on: HT-1080
Description: SANGER: Inhibition of human HT-1080 cell growth in a cell viability assay.

[8] = tested on: HuP-T3;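 further: HuP-T3 cell growth inhibition, read out with a cell viability assay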
Description: SANGER: Inhibition of human HuP-T3 cell growth in a cell viability assay.

[9] = tested on: IGR-1;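 further: growth inhibition of human IGR-1 cells, read out with a cell viability assay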
Description: SANGER: Inhibition of human IGR-1 cell growth in a cell viability assay.

[10] = tested on: Kasumi 1;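 further: growth inhibition of human Kasumi-1 cells, read out by a cell viability assay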
Description: SANGER: Inhibition of human KASUMI-1 cell growth in a cell viability assay.

[11] = tested on: KNS-62;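 further: inhibition of cell growth, read out with a cell viability assay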
Description: SANGER: Inhibition of human KNS-62 cell growth in a cell viability assay.

[12] = tested on: KYSE-510;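 further: cell viability readout used to measure how strongly growth of the cell line is suppressed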
Description: SANGER: Inhibition of human KYSE-510 cell growth in a cell viability assay.

[13] = tested on: M059J;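 further: growth inhibition of M059J cells, read out with a cell viability assay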
Description: SANGER: Inhibition of human M059J cell growth in a cell viability assay.

[14] = tested on: MEL-HO
Description: SANGER: Inhibition of human MEL-HO cell growth in a cell viability assay.

[15] = tested on: NCI-H1563;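 further: growth inhibition of human NCI-H1563 cells, read out with a cell viability assay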
Description: SANGER: Inhibition of human NCI-H1563 cell growth in a cell viability assay.

[16] = tested on: NCI-H2052;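 further: growth inhibition of NCI-H2052 cells, read out with a cell viability assay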
Description: SANGER: Inhibition of human NCI-H2052 cell growth in a cell viability assay.

[17] = tested on: NCI-H28;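 further: growth inhibition of human NCI-H28 cells, read out as cell viability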
Description: SANGER: Inhibition of human NCI-H28 cell growth in a cell viability assay.

[18] = tested on: NCI-H596;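 further: growth inhibition of NCI-H596 cells, read out with a cell viability assay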
Description: SANGER: Inhibition of human NCI-H596 cell growth in a cell viability assay.

[19] = tested on: NCI-H630;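 further: growth inhibition of NCI-H630 cells, read out with a cell viability assay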
Description: SANGER: Inhibition of human NCI-H630 cell growth in a cell viability assay.

[20] = tested on: OC-314
Description: SANGER: Inhibition of human OC-314 cell growth in a cell viability assay.

[21] = tested on: OVCAR-3;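 further: growth inhibition of human OVCAR-3 cells, determined by a cell viability assay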
Description: SANGER: Inhibition of human OVCAR-3 cell growth in a cell viability assay.

[22] = tested on: PC-3;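 further: cell viability assay measuring growth inhibition of PC-3 cells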
Description: SANGER: Inhibition of human PC-3 cell growth in a cell viability assay.

[23] = tested on: RO82-W-1;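 further: growth inhibition of human RO82-W-1 cells, measured with a cell viability assay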
Description: SANGER: Inhibition of human RO82-W-1 cell growth in a cell viability assay.

[24] = tested on: RVH-421
Description: SANGER: Inhibition of human RVH-421 cell growth in a cell viability assay.

[25] = tested on: SK-LU-1;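 further: cell viability assay measuring growth inhibition of human SK-LU-1 cells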
Description: SANGER: Inhibition of human SK-LU-1 cell growth in a cell viability assay.

[26] = tested on: SNU-387
Description: SANGER: Inhibition of human SNU-387 cell growth in a cell viability assay.

[27] = tested on: SW1463;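 further: growth inhibition of SW1463 cells, determined with a cell viability assay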
Description: SANGER: Inhibition of human SW1463 cell growth in a cell viability assay.

[28] = tested on: BCPAP;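 further: growth inhibition of BCPAP cells, read out in a cell viability assay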
Description: SANGER: Inhibition of human BCPAP cell growth in a cell viability assay.

[29] = tested on: BXPC-3;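 further: growth inhibition of human BxPC-3 cells, read out by a cell viability assay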
Description: SANGER: Inhibition of human BxPC-3 cell growth in a cell viability assay.

[30] = tested on: CAKI-1;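 further: growth inhibition of CAKI-1 cells, measured by a cell viability assay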
Description: SANGER: Inhibition of human CAKI-1 cell growth in a cell viability assay.

[31] = tested on: CAL-54;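 further: growth inhibition of CAL-54 cells, read out by a viability measurement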
Description: SANGER: Inhibition of human CAL-54 cell growth in a cell viability assay.

[32] = tested on: CAL-85-1;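 further: growth inhibition of human CAL-85-1 cells, read out with a cell viability assay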
Description: SANGER: Inhibition of human CAL-85-1 cell growth in a cell viability assay.

[33] = tested on: VM-CUB-1;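 further: cell viability assay measuring growth inhibition of the human VM-CUB-1 cell line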
Description: SANGER: Inhibition of human VM-CUB-1 cell growth in a cell viability assay.

[34] = tested on: COLO-680N;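 further: cell viability assay used to measure inhibition of COLO-680N cell growth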
Description: SANGER: Inhibition of human COLO-680N cell growth in a cell viability assay.

CISPLATIN
IC50 ([1]; gamg): 289 µM | IC50 ([2]; gms-10): 85.2 µM | IC50 ([3]; gp5d): 24.2 µM | IC50 ([4]; hcc1419): 29.5 µM | IC50 ([5]; hn): 36 µM | IC50 ([6]; ho-1-n-1): 39.4 µM | IC50 ([7]; ht-1080): 23.9 µM | IC50 ([8]; hup-t3): 53.9 µM | IC50 ([9]; igr-1): 575 µM | IC50 ([10]; kasumi 1): 62.1 µM | IC50 ([11]; kns-62): 14 µM | IC50 ([12]; kyse-510): 3.38 µM | IC50 ([13]; m059j): 10.4 µM | IC50 ([14]; mel-ho): 1.07 µM | IC50 ([15]; nci-h1563): 146 µM | IC50 ([16]; nci-h2052): 166 µM | IC50 ([17]; nci-h28): 117 µM | IC50 ([18]; nci-h596): 305 µM | IC50 ([19]; nci-h630): 514 µM | IC50 ([20]; oc-314): 14 µM | IC50 ([21]; ovcar-3): 696 µM | IC50 ([22]; pc-3): 96.7 µM | IC50 ([23]; ro82-w-1): 72.1 µM | IC50 ([24]; rvh-421): 40.6 µM | IC50 ([25]; sk-lu-1): 7.38 µM | IC50 ([26]; snu-387): 26.1 µM | IC50 ([27]; sw1463): 189 µM | IC50 ([28]; bcpap): 228 µM | IC50 ([29]; bxpc-3): 22.3 µM | IC50 ([30]; caki-1): 7.27 µM | IC50 ([31]; cal-54): 12.2 µM | IC50 ([32]; cal-85-1): 732 µM | IC50 ([33]; vm-cub-1): 6.3 µM | IC50 ([34]; colo-680n): 23.6 µM

Cc1cn(-c2cc(NC(=O)c3ccc(C)c(Nc4nccc(-c5cccnc5)n4)c3)cc(C(F)(F)F)c2)cn1 [NILOTINIB]
IC50 ([1]; Homo sapiens, GAMG): > 2 µM | IC50 ([2]; Homo sapiens, GMS-10): > 2 µM | IC50 ([3]; Homo sapiens, GP5d): > 2 µM | IC50 ([4]; Homo sapiens, HCC1419): > 2 µM | IC50 ([5]; Homo sapiens, HN): > 2 µM | IC50 ([6]; Homo sapiens, HO-1-N-1): > 2 µM | IC50 ([7]; Homo sapiens, HT-1080): > 2 µM | IC50 ([8]; Homo sapiens, HuP-T3): > 2 µM | IC50 ([9]; Homo sapiens, IGR-1): > 2 µM | IC50 ([10]; Homo sapiens, Kasumi 1): 0.0241 µM | IC50 ([11]; Homo sapiens, KNS-62): > 2 µM | IC50 ([12]; Homo sapiens, KYSE-510): > 2 µM | IC50 ([13]; Homo sapiens, M059J): > 2 µM | IC50 ([14]; Homo sapiens, MEL-HO): > 2 µM | IC50 ([15]; Homo sapiens, NCI-H1563): > 2 µM | IC50 ([16]; Homo sapiens, NCI-H2052): > 2 µM | IC50 ([17]; Homo sapiens, NCI-H28): > 2 µM | IC50 ([18]; Homo sapiens, NCI-H596): > 2 µM | IC50 ([19]; Homo sapiens, NCI-H630): > 2 µM | IC50 ([20]; Homo sapiens, OC-314): > 2 µM | IC50 ([21]; Homo sapiens, OVCAR-3): > 2 µM | IC50 ([22]; Homo sapiens, PC-3): > 2 µM | IC50 ([23]; Homo sapiens, RO82-W-1): > 2 µM | IC50 ([24]; Homo sapiens, RVH-421): > 2 µM | IC50 ([25]; Homo sapiens, SK-LU-1): > 2 µM | IC50 ([26]; Homo sapiens, SNU-387): > 2 µM | IC50 ([27]; Homo sapiens, SW1463): > 2 µM | IC50 ([28]; Homo sapiens, BCPAP): > 2 µM | IC50 ([29]; Homo sapiens, BXPC-3): > 2 µM | IC50 ([30]; Homo sapiens, CAKI-1): > 2 µM | IC50 ([31]; Homo sapiens, CAL-54): > 2 µM | IC50 ([32]; Homo sapiens, CAL-85-1): > 2 µM | IC50 ([33]; Homo sapiens, VM-CUB-1): > 2 µM | IC50 ([34]; Homo sapiens, COLO-680N): > 2 µM
